Literature values, collected in patent US6013628A, “Method for treating conditions of the eye using polypeptides” (Regents of the University of Minnesota, priority 1995, dated 2000).

Tested on: retinal pigmented epithelial cells
Details: Avery et al. 1986; cited from earlier work

For Arg-Gly-Asp-Ser (RGDS), the “Adhesion of retinal pigmented epithelial cells to fibronectin, type I collagen, type II collagen and lens capsule basement membrane” value is given as “inhibit the adhesion”.
